Values quoted from earlier work, collected in patent US6436649B1, “Method for detecting and/or quantifying a hapten in a homogeneous phase and device for implementation thereof” (priority 1996, dated 2002).
Like-named read-outs stand apart in the source and are kept apart here.

What was measured:
E. Coli β-lactamase = E. Coli β-lactamase (Escherichia coli, UniProt P00811); details: enzyme E. Coli; cited from earlier work
P99/Q908R β-lactamases = P99/Q908R β-lactamases (Enterobacter cloacae, UniProt P05364); details: cited from earlier work
Citro.F. β-lactamase = Citro.F. β-lactamase (Citrobacter freundii, UniProt P05193); details: enzyme Citro.F.; cited from earlier work
Citro.F. β-lactamase, sequence (P05193 21-381): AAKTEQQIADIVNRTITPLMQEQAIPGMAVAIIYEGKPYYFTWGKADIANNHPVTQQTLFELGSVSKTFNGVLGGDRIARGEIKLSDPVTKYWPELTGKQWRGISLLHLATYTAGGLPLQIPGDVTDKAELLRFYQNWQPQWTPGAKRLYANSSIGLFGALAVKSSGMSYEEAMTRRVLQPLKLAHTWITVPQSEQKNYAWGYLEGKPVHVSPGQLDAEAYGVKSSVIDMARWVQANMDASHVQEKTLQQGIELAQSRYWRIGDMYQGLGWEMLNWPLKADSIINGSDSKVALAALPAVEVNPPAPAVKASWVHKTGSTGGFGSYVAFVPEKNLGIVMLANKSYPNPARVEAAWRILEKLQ

[1] = test system: P99/Q908R/Citro.F. β-lactamases; details: enzymes P99/Q908R/Citro.F.; cited from earlier work
type C β-lactamases = target: T1, type C β-lactamases (Enterobacter cloacae, UniProt P05364); details: Ki of the parent inhibitor; cited from earlier work
T1 construct: Ki

E. Coli β-lactamase, sequence (P00811 20-377): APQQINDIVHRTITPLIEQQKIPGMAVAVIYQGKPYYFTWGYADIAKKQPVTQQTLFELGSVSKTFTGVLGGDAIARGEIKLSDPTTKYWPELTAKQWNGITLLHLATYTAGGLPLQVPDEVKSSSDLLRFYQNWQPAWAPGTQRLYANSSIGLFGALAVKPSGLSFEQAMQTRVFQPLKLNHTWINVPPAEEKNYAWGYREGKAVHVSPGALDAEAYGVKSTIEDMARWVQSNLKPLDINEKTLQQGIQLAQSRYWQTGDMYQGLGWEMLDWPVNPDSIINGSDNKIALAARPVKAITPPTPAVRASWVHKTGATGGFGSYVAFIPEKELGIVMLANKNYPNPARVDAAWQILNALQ

Compound | Km (E. Coli β-lactamase) [µM] | kcat (E. Coli β-lactamase) | Km (P99/Q908R β-lactamases; enzyme P99/Q908R) [µM] | kcat (P99/Q908R β-lactamases; enzyme P99/Q908R) [S^−1] | Km (Citro.F. β-lactamase) [µM] | kcat (Citro.F. β-lactamase) [S^−1] | Km [1] [µM] | kcat [1] [S^−1] | Ki (type C β-lactamases) [nM] | Km (P99/Q908R β-lactamases; enzyme P99/Q908R, read-out: Km) [µM] | kcat (P99/Q908R β-lactamases; P99 enzyme, nitrocefin as reporter substrate) [s⁻¹]
Cc1nnc(SCC2=C(C(=O)O)N3C(=O)[C@@H](NC(=O)Cn4cnnn4)[C@H]3SC2)s1 [Cefazolin] | 400 | 3000 150 S^−1 |  |  |  |  |  |  |  |  | 
COc1cccc(OC)c1C(=O)N[C@@H]1C(=O)N2[C@@H]1SC(C)(C)[C@@H]2C(=O)O [Methicillin] | 0.15 | 0.08 S^−1 | 0.03 | 0.007 | 0.002 | 0.01 |  |  |  |  | 
CC1(C)S[C@@H]2[C@H](NC(=O)Cc3ccccc3)C(=O)N2[C@H]1C(=O)O [Benzylpenicillin] | 4.4 | 45 S^−1 |  |  |  |  | 0.5 | 20 |  |  | 
CO/N=C(\C(=O)N[C@@H]1C(=O)N2C(C(=O)O)=C(COC(C)=O)CS[C@H]12)c1csc(N)n1 [Cefotaxime] | 1.7 | 0.17 S^−1 | 0.01 | 0.01 |  |  |  |  |  |  | 
CC1(C)S[C@@H]2[C@H](NC(=O)C(C(=O)O)c3ccccc3)C(=O)N2[C@H]1C(=O)O (stereo partly shown) [Carbenicillin] | 0.02 | 0.003 S^−1 | 0.01 | 0.002 | 0.0005 | 0.004 |  |  | 10 |  | 
CC(=O)OCC1=C(C(=O)O)N2C(=O)[C@@H](NC(=O)CC#N)[C@H]2SC1 [Cephaestrile] |  |  | 140 | 143 |  |  |  |  |  |  | 
CC(=O)OCC1=C(C(=O)O)N2C(=O)[C@@H](NC(=O)[C@H](N)c3ccccc3)[C@H]2SC1 [Cephaglycine] |  |  |  | 1 |  |  |  |  |  | 2 | 
O=C(Cc1cccs1)N[C@@H]1C(=O)N2C(C(=O)O)=C(/C=C/c3ccc([N+](=O)[O-])cc3[N+](=O)[O-])CS[C@H]12 [Nitrocephin] | 500 | 500 S^−1 |  | 780 | 12 | 300 |  |  |  | 25 | 780
